According to patent US6716961B2, “Chiral peptide nucleic acids with a N-aminoethyl-d-proline backbone” (ISIS Innovation Limited, priority 2001, dated 2004):

Columns and labels:
poly(rI) = assay: Tm (UV melting) control experiment with poly(rI); assay type: binding; details: conditions as FIG. 1; dash with footnote b = no melting above 20° C. was observed
Description: (§1) FIG. 1 is a melting point curve for compound (3a) and poly (rA), (sigmoid curve with inflection at 53° C.) poly (rU) (rising straight line plot) and poly (dA) (falling straight line plot) Conditions: 10 mM sodium phosphate buffer pH 7.0; 150 mM NaCl; 1.0 μM (3a); ratio of T:A=1:1, 20% hypochromicity.
(§2) Poly(rA) (Mr˜7×10^6) and poly(rU) (Mr<9×10^5) was obtained from Fluka AG. Poly(dA) (Mr˜9.19×10^5) was obtained from Amersham Pharmacia Biotech. Poly(rI) was obtained from Sigma. The oligonucleotide, (dA)10 and fluorescent labelled (dA)10 was obtained in deprotected and hplc-purified form. All nucleic acids and oligonucleotides were used as received without further treatment.
(§3) The concentration of oligonucleotide, nucleic acid and cPNA solutions was determined from the absorbance at 260 nm (OD260). […]
(§4) Tm experiments were performed on a CARY 100 UV Spectrophotometer (Varian Ltd.) equipped with a thermal melt system. The sample for Tm measurement was prepared by mixing calculated amounts of stock oligonucleotide and cPNA solutions together to give final concentration of nucleotides and sodium phosphate buffer (pH 7.0) and the final volumes were adjusted to 3.0 mL by addition of deionized water. […] The OD260 was recorded in steps from 20-95° C. […] The results were normalized by dividing the absorbance at each temperature by the initial absorbance. […]

poly(dA) [1] = assay: Circular dichroism spectroscopy of mixture with poly(dA); assay type: binding; details: 10 mM sodium phosphate buffer pH 7.0; same conditions as poly(rA)
Description: (§5) FIG. 2A is a CD spectra of mixture of poly(rA) and (3a) at different equivalents of T; inset: plot of ε260 versus equivalents of T; FIG. 2B is a CD spectra of mixture of poly(dA) and (3a) at different equivalents of T. Conditions 10 mM sodium phosphate buffer pH 7.0. The concentration of poly (rA) and poly (dA) was 10 μM based on AMP.
(§6) All CD experiments were performed on a JASCO Model J-710/720 spectropolarimeter (Oxford Centre of Molecular Sciences, Oxford). The samples were prepared by mixing calculated amounts of stock oligonucleotide and cPNA solutions together in a 10 mm quartz cell and the final volumes were adjusted to 2.00 mL by addition of deionized water containing an appropriate amount of sodium phosphate buffer pH 7.0 to give the final AMP concentration of 5 mM and phosphate buffer of 10 mM. The spectra were measured at 20° C. from 300 to 200 nm and averaged 4 times then subtracted from a spectrum of pure water under the same conditions.

[2] = Solubility in aqueous solvents; assay type: physicochemical
[3] = system: fluorescent labelled (dA)10; assay: Gel electrophoresis with fluorescent labelled (dA)10; assay type: binding; details: F(dA)10:cPNA 1:1 to 1:10; 20% polyacrylamide gel, 90 mM TBE
Source text: The gel electrophoresis apparatus used was a SE6000 Vertical Slab Gel Electrophoresis Unit (Hoefer Scientific Instruments). The gel dimensions were 10×9.5×0.075 cm. The DC power sources was an Electrophoresis power supply model EPS-301 (Amersham Pharmacia Biotech). Acrylamide and N,N-methylene bisacrylamide were obtained as a concentrated aqueous stock solution from Fluka AG. Ammonium persulfate (electrophoresis grade) was obtained from Sigma Chemical Co. Tetramethylethylenediamine (TEMED) (electrophoresis grade) and hemicals necessary for preparing buffers were of the highest purity available from BDH. The stock 0.90 M Tris-Borate-EDTA (TBE) buffer pH 8.3 and the loading buffer (30% glycerol, 0.025% bromophenol blue and 0.025% xylene cyanol FF in 90 mM TBE as well as the 20% polyacrylamide gel in 90 mM TBE was prepared according to the literature (see Essential Molecular Biology, A Practical Approach, Vol 1, Oxford, 1991, pp 89-126).
The sample was prepared by mixing calculated amounts of the fluorescent labelled (dA)10 and PNA concentrated stock solutions in an Eppendorf tube to give the final total amounts of AMP ˜1 nmol and the molar ratio of F(dA)10:cPNA=1:1, 1:2, 1:3, 1:5 and 1:10. […]

poly(rU) = assay: Tm (UV melting) control experiment with poly(rU); assay type: binding; details: conditions as FIG. 1; dash with footnote b = no melting above 20° C. was observed
Description: as §1, §2, §3, §4

poly(rA) [4] = assay: Tm (UV melting) measurement of hybrid with poly(rA); assay type: binding
Description: as §1, §2, §3, §4

poly(rA) [5] = assay: Circular dichroism spectroscopy of mixture with poly(rA); assay type: binding; details: 10 mM sodium phosphate buffer pH 7.0; 200-300 nm
Description: as §5, §6

poly(dA) [6] = assay: Tm (UV melting) measurement of hybrid with poly(dA); assay type: binding; details: conditions as FIG. 1 (10 mM sodium phosphate pH 7.0; 150 mM NaCl; T:A=1:1); dash with footnote b = no melting above 20° C. was observed
Description: as §1, §2, §3, §4

Substance	Tm of hybrid with poly(rI) (poly(rI))	change in CD signal on addition to poly(dA) (poly(dA) [1])	achievable concentration in aqueous solvents [2]	solubility in aqueous solvents [2]	binding to (dA)10 in gel electrophoresis [3]	Tm of hybrid with poly(rU) (poly(rU))	Tm of hybrid with poly(rA) (poly(rA) [4]; 10 mM sodium phosphate buffer pH 7.0, 150 mM NaCl, 1.0 μM (3a), T:A=1:1) [°C]	binding to poly(rA) at high salt concentration (poly(rA) [4]; 1.0 M NaCl)	change in CD signal on addition to poly(rA) (poly(rA) [5])	Tm of hybrid with poly(dA) (poly(dA) [6]) [°C]
H-[(ψ-CH2)Gly-D-Pro(T)]10-LysNH2 [(3a)]	no observable melting curve	no significant change	exceeding 5 mg/mL	freely soluble in aqueous solvents	lack of binding	no observable melting curve	53	no binding	strong induced CD signal with a minima at 275 nm	–
H-[Gly-o-Pro(cis-τ)]10-LysNH, [(2a)]	–	–	–	–	–	–	–	–	–	70
H-[Acg(T)]10-LysNH3 [(1a)]	–	–	–	–	–	–	–	–	–	73
